The text below walks through data of patent publication US8674111B2, “Oxazole and thiazole derivatives as ALX receptor agonists” (Actelion Pharmaceuticals Ltd., priority 2009, dated 2014).

The experiment deals with T1, recombinant human ALX receptor (Homo sapiens, UniProt P25090).
T1 construct: expressed in transfected cells; host or cells: HEK293 (HEK293-hALXR-Gα16)
T1 sequence (P25090 1-351): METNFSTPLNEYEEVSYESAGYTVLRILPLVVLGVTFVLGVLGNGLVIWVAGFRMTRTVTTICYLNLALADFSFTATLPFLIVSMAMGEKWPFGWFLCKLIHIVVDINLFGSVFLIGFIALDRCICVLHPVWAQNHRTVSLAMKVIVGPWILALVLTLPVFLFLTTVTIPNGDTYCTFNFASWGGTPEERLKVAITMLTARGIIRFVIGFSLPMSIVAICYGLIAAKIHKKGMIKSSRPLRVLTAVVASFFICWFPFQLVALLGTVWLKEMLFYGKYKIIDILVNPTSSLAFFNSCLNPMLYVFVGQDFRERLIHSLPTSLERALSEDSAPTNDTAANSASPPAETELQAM
The experiment can be described thus: Intracellular calcium measurements (FLIPR), ALX receptor agonistic activity. It is filed as cell-based. The conditions noted are these: HEK293-hALXR-Gα16 cells; Fluo-4 calcium fluorescence; normalized to WKYMVm 10 nM. The method, then:
The ALX receptor agonistic activity of the compounds of formula (I) is determined in accordance with the following experimental method.
Intracellular Calcium Measurements:
Cells expressing recombinant human ALX receptor and the G-protein Gα16 (HEK293-hALXR-Gα16) were grown to 80% confluency in Growing Medium (GM). Cells were detached from culture dishes with a cell dissociation buffer (Invitrogen, 13151-014), and collected by centrifugation at 1,000 rpm at rt for 5 min in Assay Buffer (AB) (equal parts of Hank's BSS (Gibco, 14065-049) and DMEM without Phenol Red (Gibco, 11880-028)). After 60 min incubation at 37° C. under 5% CO2 in AB supplemented with 1 μM Fluo-4 (AM) (Invitrogen, F14202) and 20 mM HEPES (Gibco, 15630-056), the cells were washed and resuspended in AB. They were then seeded onto 384-well FLIPR assay plates (Greiner, 781091) at 50,000 cells in 70 μl per well and sedimented by centrifugation at 1,000 rpm for 1 min. Stock solutions of test compounds were made up at a concentration of 10 mM in DMSO, and serially diluted in AB to concentrations required for activation dose response curves. WKYMVm (Phoenix Peptides) was used as a reference agonist. A FLIPR Tetra instrument (Molecular Devices) was operated according to the manufacturer's standard instructions, adding 4 μl of test compound dissolved at 10 mM in DMSO and diluted prior to the experiment in assay buffer to obtain the desired final concentration. Changes in fluorescence were monitored before and after the addition of test compounds at lex=488 nm and lem=540 nm. Emission peak values above base level after compounds addition were exported after base line subtraction. Values were normalized to high-level control (WKYMVm compound, 10 nM final concentration) after subtraction of the base line value (AB addition).
A general note: Calcium flux is commonly read through the fluorescence of an indicator in the cells.

As usually defined, the EC50 is the concentration that produces a half-maximal response.

Turning to `CC(=O)CCCCc1nc(NC(=O)OCc2ccccc2Cl)co1` [Example 1, [2-(5-Oxo-hexyl)-oxazol-4-yl]-carbamic acid 2-chloro-benzyl ester], the EC50 amounted to 0.3 nM. `CC(=O)CCCCc1nc(NC(=O)c2ncoc2-c2ccccc2)co1` [Example 2, 5-Phenyl-oxazole-4-carboxylic acid [2-(5-oxo-hexyl)-oxazol-4-yl]-amide]: the concentration for a half-maximal effect (EC50) is 18 nM. Turning to `CC(=O)c1ccn(Cc2nc(NC(=O)OCc3ccccc3Cl)co2)n1` [Example 3, [2-(3-Acetyl-pyrazol-1-ylmethyl)-oxazol-4-yl]-carbamic acid 2-chloro-benzyl ester], the EC50 came to 0.7 nM. `CC(F)(F)CCCCc1nc(NC(=O)OCc2ccccc2Cl)co1` [Example 4, [2-(5,5-Difluoro-hexyl)-oxazol-4-yl]-carbamic acid 2-chloro-benzyl ester]: the concentration for a half-maximal effect (EC50) amounted to 13 nM. As for `Cc1cccc(-c2oc(C)nc2C(=O)Nc2coc(CCCCC(C)(F)F)n2)c1` [Example 5, 2-Methyl-5-m-tolyl-oxazole-4-carboxylic acid [2-(5,5-difluoro-hexyl)-oxazol-4-yl]-amide], the EC50 was found to be 194 nM. In the case of `CC(=O)CCCCc1nc(NC(=O)c2nc(C)oc2-c2cccc(C)c2)co1` [Example 6, 2-Methyl-5-m-tolyl-oxazole-4-carboxylic acid [2-(5-oxo-hexyl)-oxazol-4-yl]-amide], the half-maximal effective concentration (EC50) came out at 9.8 nM. The result for `CC(=O)CCCCc1nc(NC(=O)c2ncsc2-c2cccc(F)c2)co1` [Example 7, 5-(3-Fluoro-phenyl)-thiazole-4-carboxylic acid [2-(5-oxo-hexyl)-oxazol-4-yl]-amide] reads 784 nM; that for `CC(=O)CCCCc1nc(NC(=O)c2ncoc2-c2ccc(F)cc2)co1` [Example 8, 5-(4-Fluoro-phenyl)-oxazole-4-carboxylic acid [2-(5-oxo-hexyl)-oxazol-4-yl]-amide], 86 nM; that for `CCc1nc(C(=O)Nc2coc(CCCCC(C)=O)n2)c(-c2ccccc2)o1` [Example 9, 2-Ethyl-5-phenyl-oxazole-4-carboxylic acid [2-(5-oxo-hexyl)-oxazol-4-yl]-amide], 3.2 nM.

`O=C(Nc1coc(Cn2cc(Br)cn2)n1)OCc1ccccc1Cl` [Example 10, [2-(4-Bromo-pyrazol-1-ylmethyl)-oxazol-4-yl]-carbamic acid 2-chloro-benzyl ester]: the EC50 was 72 nM. As for `CC(=O)c1ccn(Cc2nc(NC(=O)OCc3ccc(F)cc3Cl)co2)n1` [Example 11, [2-(3-Acetyl-pyrazol-1-ylmethyl)-oxazol-4-yl]-carbamic acid 2-chloro-4-fluoro-benzyl ester], the figure is 0.5 nM.

As for `COc1cccc(COC(=O)Nc2coc(Cn3ccc(C(C)=O)n3)n2)c1` [Example 12, [2-(3-Acetyl-pyrazol-1-ylmethyl)-oxazol-4-yl]-carbamic acid 3-methoxy-benzyl ester], the EC50 worked out at 1 nM. With `CC(=O)c1ccn(Cc2nc(NC(=O)OCc3ccc(C(F)(F)F)cc3)co2)n1` [Example 13, [2-(3-Acetyl-pyrazol-1-ylmethyl)-oxazol-4-yl]-carbamic acid 4-trifluoromethyl-benzyl ester], the EC50 amounted to 12 nM. As for `CC(=O)c1ccc(Cc2nc(NC(=O)OCc3ccccc3Cl)co2)s1` [Example 14, [2-(5-Acetyl-thiophen-2-ylmethyl)-oxazol-4-yl]-carbamic acid 2-chloro-benzyl ester], the figure is 2.2 nM; as for `CC(=O)c1cccc(Cc2nc(NC(=O)OCc3cccc(OC(F)(F)F)c3)co2)c1` [Example 15, [2-(3-Acetyl-benzyl)-oxazol-4-yl]-carbamic acid 3-trifluoromethoxy-benzyl ester], 48 nM; as for `CC(=O)c1ccn(Cc2nc(NC(=O)c3nc(C4CC4)sc3-c3ccccc3)co2)n1` [Example 16, 2-Cyclopropyl-5-phenyl-thiazole-4-carboxylic acid [2-(3-acetyl-pyrazol-1-ylmethyl)-oxazol-4-yl]-amide], 6560 nM.

For `CC(=O)c1cccc(Cc2nc(NC(=O)/C=C/c3ccc(C(F)(F)F)cc3)co2)c1` [Example 17, (E)-N-[2-(3-Acetyl-benzyl)-oxazol-4-yl]-3-(4-trifluoromethyl-phenyl)-acrylamide], the half-maximal effective concentration (EC50) came out at 1310 nM. The result for `CC(=O)c1ccc(Cc2nc(NC(=O)c3ncoc3-c3ccccc3)cs2)s1` [Example 18, 5-Phenyl-oxazole-4-carboxylic acid [2-(5-acetyl-thiophen-2-ylmethyl)-thiazol-4-yl]-amide] reads 1570 nM; that for `CC(=O)c1ccc(Cc2nc(NC(=O)c3nc(C)oc3-c3cccc(Cl)c3)cs2)s1` [Example 19, 5-(3-Chloro-phenyl)-2-methyl-oxazole-4-carboxylic acid [2-(5-acetyl-thiophen-2-ylmethyl)-thiazol-4-yl]-amide], 3640 nM. As for `CC(=O)c1ccc(Cc2nc(NC(=O)c3ncoc3-c3ccccc3)cs2)o1` [Example 20, 5-Phenyl-oxazole-4-carboxylic acid [2-(5-acetyl-furan-2-ylmethyl)-thiazol-4-yl]-amide], the figure is 62 nM; as for `CC(=O)c1ccc(Cc2nc(NC(=O)c3nc(C)oc3-c3cccc(C)c3)cs2)o1` [Example 21, 2-Methyl-5-m-tolyl-oxazole-4-carboxylic acid [2-(5-acetyl-furan-2-ylmethyl)-thiazol-4-yl]-amide], 216 nM.
